T/C data for nine compounds are collected here from PubChem BioAssay AID316 (DTP/NCI, 2004).

In the assay the test system is P1534 leukemia ip, CD2F1 mice, survival T/C. The assay can be described thus: NCI In Vivo Anticancer Drug Screen. Data for tumor model P1534 Leukemia (intraperitoneal) in CD2F1 (CDF1) mice. The conditions noted are these: endpoint: mean survival time, higher = longer survival. Here is the method:
The antitumor activity of compounds was measured in mice bearing transplantable tumors. Survival or tumor size were measured and the results are expressed as the measurement made in the treated group (T) divided by the measurement made in the vehicle treated control group (C). The tumor model used in this assay is P1534 Leukemia (intraperitoneal) in CD2F1 (CDF1) mice

Where [1] appears, read: dose: 50.0 mg/kg/injection, schedule: Q01DX010 (ip), vehicle: saline.
[2] abbreviates: dose: 100.0 mg/kg/injection, schedule: Q01DX010 (ip), vehicle: saline.
Setting [3] is: dose: 200.0 mg/kg/injection, schedule: Q01DX010 (ip), vehicle: saline.
Where [4] appears, read: dose: 400.0 mg/kg/injection, schedule: Q01DX010 (ip), vehicle: saline.

Values joined by “and” are separate entries in the source; they are usually repeats but may differ in a detail not shown here. Identical values can stand only once. Inconclusive results and toxic doses are left out.

`CC[C@]1(O)C[C@H]2CN(CCc3c([nH]c4ccccc34)[C@@](C(=O)OC)(c3cc4c(cc3OC)N(C=O)[C@H]3[C@@](O)(C(=O)OC)[C@H](OC(C)=O)[C@]5(CC)C=CCN6CC[C@]43[C@@H]65)C2)C1`: the T/C was 97 % of control (dose: 0.02 mg/kg/injection, schedule: Q01DX010 (ip), vehicle: saline); 86 % of control (dose: 0.03 mg/kg/injection, schedule: Q01DX010 (ip), vehicle: saline); 100 % of control (dose: 0.05 mg/kg/injection, schedule: Q01DX010 (ip), vehicle: water); 156 % of control (dose: 0.1 mg/kg/injection, schedule: Q01DX010 (ip), vehicle: water); 160 % of control and 259 % of control and 306 % of control (dose: 0.13 mg/kg/injection, schedule: Q02DX008 (ip), vehicle: saline); 119 % of control and 181 % of control and 234 % of control (dose: 0.15 mg/kg/injection, schedule: Q## X004 (ip), vehicle: saline). In addition, the T/C by setting is: (dose: 0.16 mg/kg/injection, schedule: Q## X032 (ip), vehicle: saline) 208 % of control; (dose: 0.2 mg/kg/injection, schedule: Q01DX010 (ip), vehicle: water) 305 % of control; (dose: 0.2 mg/kg/injection, schedule: Q02DX008 (ip), vehicle: saline) 221 % of control and 270 % of control and 290 % of control; (dose: 0.22 mg/kg/injection, schedule: Q## X004 (ip), vehicle: saline) 231 % of control and 242 % of control and 270 % of control; (dose: 0.24 mg/kg/injection, schedule: Q## X032 (ip), vehicle: saline) 187 % of control and 193 % of control and 212 % of control; (dose: 0.3 mg/kg/injection, schedule: Q02DX008 (ip), vehicle: saline) 298 % of control and 302 % of control and 352 % of control. Besides, the T/C was 256 % of control and 273 % of control and 304 % of control (dose: 0.35 mg/kg/injection, schedule: Q## X004 (ip), vehicle: saline); 234 % of control and 241 % of control and 282 % of control (dose: 0.36 mg/kg/injection, schedule: Q## X032 (ip), vehicle: saline); 154 % of control and 197 % of control and 358 % of control (dose: 0.44 mg/kg/injection, schedule: Q02DX008 (ip), vehicle: saline); 270 % of control and 344 % of control and 366 % of control (dose: 0.53 mg/kg/injection, schedule: Q## X004 (ip), vehicle: saline); 274 % of control and 275 % of control and 335 % of control (dose: 0.54 mg/kg/injection, schedule: Q## X032 (ip), vehicle: saline); 283 % of control and 357 % of control (dose: 0.8 mg/kg/injection, schedule: Q## X004 (ip), vehicle: saline). For the same compound, the T/C reads like this: (dose: 0.8 mg/kg/injection, schedule: Q## X032 (ip), vehicle: saline) 190 % of control and 218 % of control and 92 % of control; (dose: 1.2 mg/kg/injection, schedule: Q## X004 (ip), vehicle: saline) 152 % of control; (dose: 1.2 mg/kg/injection, schedule: Q## X032 (ip), vehicle: saline) 92 % of control; (dose: 1.45 mg/kg/injection, schedule: Q01DX001 (ip), vehicle: saline) 188 % of control and 237 % of control; (dose: 1.45 mg/kg/injection, schedule: Q## X001 (ip), vehicle: saline) 294 % of control; (dose: 1.5 mg/kg/injection, schedule: Q01DX001 (ip), vehicle: saline) 159 % of control and 188 % of control and 212 % of control. The T/C was 100 % of control (dose: 1.8 mg/kg/injection, schedule: Q## X004 (ip), vehicle: saline); 158 % of control (dose: 2.9 mg/kg/injection, schedule: Q01DX001 (ip), vehicle: saline); 297 % of control (dose: 2.9 mg/kg/injection, schedule: Q## X001 (ip), vehicle: saline); 123 % of control and 208 % of control (dose: 26.0 micrograms/kg/injection, schedule: Q01DX010 (ip), vehicle: saline); 167 % of control and 173 % of control (dose: 27.0 micrograms/kg/injection, schedule: Q01DX015 (ip), vehicle: saline); 161 % of control and 240 % of control (dose: 40.0 micrograms/kg/injection, schedule: Q01DX015 (ip), vehicle: saline). For the same compound, the T/C is, setting by setting: (dose: 60.0 micrograms/kg/injection, schedule: Q01DX015 (ip), vehicle: saline) 221 % of control and 226 % of control; (dose: 90.0 micrograms/kg/injection, schedule: Q01DX015 (ip), vehicle: saline) 215 % of control and 228 % of control and 260 % of control; (dose: 135.0 micrograms/kg/injection, schedule: Q01DX015 (ip), vehicle: saline) 221 % of control and 281 % of control and 297 % of control; (dose: 200.0 micrograms/kg/injection, schedule: Q01DX015 (ip), vehicle: saline) 196 % of control and 233 % of control and 340 % of control; (dose: 300.0 micrograms/kg/injection, schedule: Q01DX010 (ip), vehicle: saline) 181 % of control and 240 % of control; (dose: 300.0 micrograms/kg/injection, schedule: Q01DX015 (ip), vehicle: saline) 200 % of control.
In the case of `O=C(NCCCC(NC(=O)OCc1ccccc1)C(=O)NCCCNCCCCNCCCNC(=O)C(CCCNC(=O)OCc1ccccc1)NC(=O)OCc1ccccc1)OCc1ccccc1` (stereo unspecified), the T/C (dose: 2.5 mg/kg/injection, schedule: Q01DX010 (ip), vehicle: saline) is 100 % of control and the T/C (dose: 10.0 mg/kg/injection, schedule: Q01DX010 (ip), vehicle: saline) was 100 % of control.
Consider `CC(=O)NCCCCCCCCCCNC(C)=O`, for which the T/C under setting [1] was 100 % of control, the T/C under setting [2] is 100 % of control, the T/C under setting [3] was 92 % of control and the T/C under setting [4] was 96 % of control.
Take `CO[C@@H]1[C@@H](OC2OC(C)C(OC3CC(C)(O)C(OC(=O)CC(C)C)C(C)O3)C(N(C)C)C2O)[C@@H](CC=O)C[C@@H](C)C(=O)/C=C/C2O[C@H]2C[C@@H](C)OC(=O)C[C@H]1OC(C)=O` (stereo partly specified): the T/C is 96 % of control (dose: 50.0 mg/kg/injection, schedule: Q#A X020 (ip), vehicle: water); 92 % of control (dose: 100.0 mg/kg/injection, schedule: Q01DX010 (ip), vehicle: water); 107 % of control and 109 % of control (dose: 100.0 mg/kg/injection, schedule: Q#A X020 (ip), vehicle: water); 113 % of control (dose: 125.0 mg/kg/injection, schedule: Q#A X020 (ip), vehicle: water); 115 % of control (dose: 150.0 mg/kg/injection, schedule: Q#A X020 (ip), vehicle: water); 116 % of control (dose: 175.0 mg/kg/injection, schedule: Q#A X020 (ip), vehicle: water). The T/C reads like this: (dose: 200.0 mg/kg/injection, schedule: Q01DX010 (ip), vehicle: water) 110 % of control; (dose: 250.0 mg/kg/injection, schedule: Q01DX010 (ip), vehicle: water) 121 % of control; (dose: 300.0 mg/kg/injection, schedule: Q01DX010 (ip), vehicle: water) 104 % of control; (dose: 1000.0 mg/kg/injection, schedule: Q01DX010 (oral), vehicle: water) 119 % of control.
In the case of `CC(C)=CCN=C(N)N`, the T/C was 103 % of control (dose: 12.5 mg/kg/injection, schedule: Q01DX010 (ip), vehicle: saline) and 106 % of control (dose: 25.0 mg/kg/injection, schedule: Q01DX010 (ip), vehicle: saline).
In the case of `CS(=O)(=O)OCC(O)C(O)COS(C)(=O)=O` (stereo unspecified), the T/C is 107 % of control (dose: 20.0 mg/kg/injection, schedule: Q01DX010 (ip), vehicle: saline); 107 % of control (dose: 40.0 mg/kg/injection, schedule: Q01DX010 (ip), vehicle: saline); 107 % of control (dose: 80.0 mg/kg/injection, schedule: Q01DX010 (ip), vehicle: saline); 103 % of control under setting [2]; 117 % of control (dose: 160.0 mg/kg/injection, schedule: Q01DX010 (ip), vehicle: saline); 103 % of control under setting [3]. Further, the T/C was 107 % of control under setting [4] and 89 % of control (dose: 800.0 mg/kg/injection, schedule: Q01DX010 (ip), vehicle: saline).
For `CCC(CCC(C)C1CCC2C3CC=C4CC(O)CCC4(C)C3CCC12C)C(C)C` (stereo unspecified) (tested in a mixture with another compound), the T/C reads like this: (dose: 12.0 mg/kg/injection, schedule: Q01DX010 (ip), vehicle: water) 102 % of control; (dose: 25.0 mg/kg/injection, schedule: Q01DX010 (ip), vehicle: water) 109 % of control; (dose: 25.0 mg/kg/injection, schedule: Q#A X020 (ip), vehicle: other) 87 % of control; (dose: 50.0 mg/kg/injection, schedule: Q01DX010 (ip), vehicle: water) 93 % of control.
`CCc1c(CC(=O)O)c2cc(C)ccc2n1Cc1ccc(Cl)cc1`: under setting [1], the T/C was 107 % of control.
For `CC(=O)[C@@]1(O)CC[C@H]2[C@@H]3C[C@H](C)C4=CC(=O)C=C[C@]4(C)[C@@]3(F)[C@@H](O)C[C@@]21C`, the T/C (dose: 12.5 mg/kg/injection, schedule: Q01DX010 (sc), vehicle: steriod suspending solution) is 107 % of control; the T/C (dose: 25.0 mg/kg/injection, schedule: Q01DX010 (sc), vehicle: steriod suspending solution) is 107 % of control; the T/C (dose: 50.0 mg/kg/injection, schedule: Q01DX010 (sc), vehicle: steriod suspending solution) is 107 % of control; the T/C (dose: 100.0 mg/kg/injection, schedule: Q01DX010 (sc), vehicle: steriod suspending solution) is 100 % of control.
